Test results taken from US4133805A, “Cyclic undecapeptides related to somatostatin and intermediates therefor” (American Home Products Corporation, priority 1975, dated 1979).

Assays:
Assay type in all cases: in vivo, Albino male rats
[1] = test system: growth hormone; assay: Test Procedure II: arginine-stimulated plasma growth hormone in nembutal-treated rats; conditions: p = <0.01
Description: (§1) Albino male rats are arranged in three groups (nine rats/group) and injected i.p. with nembutal at 50 mg/kg. Fifteen minutes after the nembutal injection they are injected s.c. according to group with (a) test compound, typically 500-2000 μg/kg; (b) SRIF 200 μg/kg; or (c) physiological saline. Ten minutes later 0.5 ml. of arginine (300 mg/ml, pH 7.2) is injected into the heart. The rats are decapitated five minutes after receiving the arginine, and the blood is collected into Trasylol-EDTA. Appropriate aliquots are then assayed for growth hormone, glucagon and insulin. […] Comparisons between control and experimental values are statistically evaluated by the analysis of variants method and statistical significance (p) at 0.05 or lower is used as the index of activity.

[2] = test system: insulin; assay: Test Procedure II: arginine-stimulated plasma insulin in nembutal-treated rats
Description: as §1

[3] = test system: glucagon; assay: Test Procedure II: arginine-stimulated plasma glucagon in nembutal-treated rats
Description: as §1

C[C@H](N)C(=O)NCC(=O)N[C@H]1CSSC[C@@H](C(=O)O)NC(=O)[C@H](CO)NC(=O)[C@H]([C@@H](C)O)NC(=O)[C@H](Cc2ccccc2)NC(=O)[C@H]([C@@H](C)O)NC(=O)[C@H](CCCCN)NC(=O)[C@H](Cc2c[nH]c3ccccc23)NC(=O)[C@H](Cc2ccccc2)NC(=O)[C@H](Cc2ccccc2)NC(=O)[C@H](CC(N)=O)NC(=O)[C@H](CCCCN)NC1=O [SRIF, somatostatin]
GH ([1]; 10 μg/kg s.c., control 543 ± 86): 241 ± 15 ng/mL | GH ([1]; 20 μg/kg s.c., control 619 ± 103): 232 ± 87 ng/mL | GH ([1]; 0.2 mg/kg s.c., control 287 ± 53): 65 ± 16 ng/mL | Insulin ([2]; 200 μg/kg s.c., control 167 ± 12, p = <0.01): 117 ± 12 μ units/ml | Insulin ([2]; 0.2 mg/kg s.c., control 151 ± 15, p = <0.05): 111 ± 10 μ units/ml | Glucagon ([3]; 200 μg/kg s.c., control 62 ± 8, p = <0.01): 13 ± 4 pg/mL | Glucagon ([3]; 0.2 mg/kg s.c., control 20 ± 1, p = <0.05): 12 ± 3 pg/mL
